Data as given in US10179355B2, “Bioremediation enhancing agents and methods of use” (JRW BIOREMEDIATION, LLC, priority 2007, dated 2019).

Legend:
[1] = test system: dechlorinating bacteria known to convert PCE to ethene; test: Set C: Efficiency by Volatile Fatty Acid Analysis; type: cell-based, Dehalococcoides and Dehalobacter spp.
Excerpt: Sets B, C, D, E, and G further contain figures and tables showing results of the characterization of the Efficiency and the Relative Efficiency of electron donor usage. Efficiency may be defined as the percent of electron donor utilized for dechlorination, and may be calculated by dividing the pmoles of Chloride ion generated by the pmoles of electron donor consumed as measured by either Volatile Fatty Acid (VFA) analysis (Sets B, C, and G) or Chemical Oxygen Demand (COD) analysis (Set D and E). The Relative Efficiency of the electron donor utilization may be defined as the Efficiency of the Electron Donor divided by the Efficiency of the Lactate Control.
The method used to calculate the consumption of the electron donor measured the propionate, acetate and formate levels to calculate the consumption of electron donor over time. The lactate and propionate fermented very rapidly resulting in acetate and formate as the only measurable VFAs.

[2] = test system: dechlorinating bacteria known to convert PCE to ethene; test: Set B: Erythorbate ML with and without YM2, PCE dechlorination microcosms (kinetics, Relative Rate); type: cell-based, Dehalococcoides and Dehalobacter spp.
Excerpt: Certain contaminated materials (or sites) may contain indigenous microbial communities that are sufficient for complete bioremediation of contaminants. For such sites, there is no need to add microbes unless the indigenous microbes are genetically deficient in achieving the desired clean-up goals. For those sites that are microbiologically limited, microorganisms may be added to the contaminated materials (or sites). In one embodiment, the inoculum may be a mixed culture of halo-respiring bacteria that have been enriched to reach an optimal cell density. These mixed cultures of halo-respiring bacteria may be typically obtained from sediment samples from rivers, streams or any waterways. More specifically, the inoculum used in the Examples was originated from a Sangamon River sediment sample (Lodge Park, Piatt County, Ill.) See, e.g., Brennan, R. A., Sanford, R. A. and Werth, C. J. (2006). “Biodegradation of Tetrachloroethene by Chitin Fermentation Products in a Continuous Flow Column System.” Journal of Environ. Engr., June 665-673. This culture had grown for several years on PCE, anaerobic basal salts medium, Wolfe's vitamin solution and various electron donors including lactate (1-2 millimolar (mM)), formate (4 mM) and chitin using the Volatile Interface Transfer Apparatus (VITA) reactor system at the University of Illinois. Brennan, R. A., and Sanford, R. A. (2002). “Continuous steady-state method using Tenax for delivering tetrachloroethene to chlororespiring bacteria.” Appl. Environ. Microbiol., 68(3), 1464-1467. […] Using 16S rRNA gene-specific primers, both Dehalococcoides and Dehalobacter spp. were detected. Quantitative real-time PCR has been used to determine that approximately 1.65×10^7 Dehalococcoides gene copies were present per ml of culture.
For purpose of this disclosure, each bottle may be started with a certain amount of PCE. At subsequent times each bottle may be sampled for the degradation daughter products of PCE, namely trichloroethene (TCE), cis-dichloroethene (DCE), vinyl chloride (VC) and ethene, etc. Trans-DCE and 1,1-DCE are also daughter products of PCE, but they may not be detectable under the conditions disclosed here.
The rate of degradation may be determined by calculating the number of pmoles of chloride ions removed from PCE and subsequently from the amounts of the daughter products generated. The calculation may be performed as follows: Chloride (μmoles)=[…]−4×PCE (μmoles)−3×TCE (pmoles)−2×DCE (μmoles)−VC (μmoles)
Next, the dechlorination rate may be determined for each bottle at each time by dividing the Chloride generated by the time (days). The data may be then normalized to the lactate control by taking the ratio of Chloride Rate (pmoles/day) and the Lactate Control Chloride Rate (pmoles/day). This ratio is called Relative Rate and is dimensionless.
As shown in the Examples, a paired t-test has been conducted to calculate the probability that the Relative Rate of one group (i.e. with Nutrient) is greater than the other group (i.e. without Nutrient). The null hypothesis is that the underlying means of the two paired groups are equal. The Probability that one group has higher Relative Rates than the other group is shown in various tables in the Examples.
The following components were used in the system for bioremediating contaminated ground water microcosms in Examples 2-8: • 160 milliliter (ml) stoppered serum bottles • 100 ml of anaerobic culture medium, groundwater containing an excess of bioavailable phosphorus and nitrogen at 0.5 mM Phosphate and 1 mM ammonium degassed with a nitrogen sparge • Nominally 1 gram of limestone • 19.54 micromoles (pmoles) Perchloroethene (PCE) • An excess of various electron donors were utilized • 3 ml of inoculum containing dechlorinating bacteria known to convert PCE to ethene.
The second set of microcosms used Erythorbate ML as the electron donor at 1020 mg/L initial concentration. […]

CC(O)C(=O)[O-].[Na+] (stereo not drawn) [Lactate Control, sodium lactate]
Estimated % Efficiency [1]: 2.55% | Relative Efficiency ([1]; relative to Lactate Control): 1.00 | Cl^− Rate ± s.d. ([2]; 0 days): 0.00 ± 0.00 µmol | Cl^− ± s.d. ([2]; 0 days): 0.00 ± 0.00 µmol | DCE ± s.d. ([2]; 0 days): 0.00 ± 0.00 µmol | Ethene ± s.d. ([2]; 0 days): 0.00 ± 0.00 µmol | PCE ± s.d. ([2]; 0 days): 19.54 ± 0.00 µmol | TCE ± s.d. ([2]; 0 days): 0.00 ± 0.00 µmol | VC ± s.d. ([2]; 0 days): 0.00 ± 0.00 µmol | Cl^− Rate ± s.d. ([2]; 21 days): 1.61 ± 0.14 µmol | Cl^− ± s.d. ([2]; 21 days): 33.88 ± 2.96 µmol | DCE ± s.d. ([2]; 21 days): 0.83 ± 0.07 µmol | Ethene ± s.d. ([2]; 21 days): 0.29 ± 0.08 µmol | PCE ± s.d. ([2]; 21 days): 7.22 ± 0.85 µmol | TCE ± s.d. ([2]; 21 days): 3.15 ± 0.11 µmol | VC ± s.d. ([2]; 21 days): 4.28 ± 0.44 µmol | Cl^− Rate ± s.d. ([2]; 35 days): 1.11 ± 0.12 µmol | Cl^− ± s.d. ([2]; 35 days): 39.00 ± 4.35 µmol | DCE ± s.d. ([2]; 35 days): 2.57 ± 0.34 µmol | Ethene ± s.d. ([2]; 35 days): 0.53 ± 0.12 µmol | PCE ± s.d. ([2]; 35 days): 3.58 ± 0.90 µmol | TCE ± s.d. ([2]; 35 days): 3.77 ± 0.18 µmol | VC ± s.d. ([2]; 35 days): 8.37 ± 0.37 µmol | Cl^− Rate ± s.d. ([2]; 49 days): 1.05 ± 0.04 µmol | Cl^− ± s.d. ([2]; 49 days): 51.67 ± 1.97 µmol | DCE ± s.d. ([2]; 49 days): 1.31 ± 0.95 µmol | Ethene ± s.d. ([2]; 49 days): 1.05 ± 0.22 µmol | PCE ± s.d. ([2]; 49 days): 0.04 ± 0.01 µmol | TCE ± s.d. ([2]; 49 days): 0.10 ± 0.03 µmol | VC ± s.d. ([2]; 49 days): 23.41 ± 0.34 µmol
